Key:
human TTK = biological target: T1, human TTK (Homo sapiens, UniProt P33981); experiment: TTK inhibition assay (indirect ELISA); assay type: biochemical; settings: GST-TTK 0.68 nM, 16 μM ATP; read-out: IC50 Ranges TTK
T1 construct: amino terminal GST fusion of full length human TTK; purchased Invitrogen
T1 sequence (P33981 1-857): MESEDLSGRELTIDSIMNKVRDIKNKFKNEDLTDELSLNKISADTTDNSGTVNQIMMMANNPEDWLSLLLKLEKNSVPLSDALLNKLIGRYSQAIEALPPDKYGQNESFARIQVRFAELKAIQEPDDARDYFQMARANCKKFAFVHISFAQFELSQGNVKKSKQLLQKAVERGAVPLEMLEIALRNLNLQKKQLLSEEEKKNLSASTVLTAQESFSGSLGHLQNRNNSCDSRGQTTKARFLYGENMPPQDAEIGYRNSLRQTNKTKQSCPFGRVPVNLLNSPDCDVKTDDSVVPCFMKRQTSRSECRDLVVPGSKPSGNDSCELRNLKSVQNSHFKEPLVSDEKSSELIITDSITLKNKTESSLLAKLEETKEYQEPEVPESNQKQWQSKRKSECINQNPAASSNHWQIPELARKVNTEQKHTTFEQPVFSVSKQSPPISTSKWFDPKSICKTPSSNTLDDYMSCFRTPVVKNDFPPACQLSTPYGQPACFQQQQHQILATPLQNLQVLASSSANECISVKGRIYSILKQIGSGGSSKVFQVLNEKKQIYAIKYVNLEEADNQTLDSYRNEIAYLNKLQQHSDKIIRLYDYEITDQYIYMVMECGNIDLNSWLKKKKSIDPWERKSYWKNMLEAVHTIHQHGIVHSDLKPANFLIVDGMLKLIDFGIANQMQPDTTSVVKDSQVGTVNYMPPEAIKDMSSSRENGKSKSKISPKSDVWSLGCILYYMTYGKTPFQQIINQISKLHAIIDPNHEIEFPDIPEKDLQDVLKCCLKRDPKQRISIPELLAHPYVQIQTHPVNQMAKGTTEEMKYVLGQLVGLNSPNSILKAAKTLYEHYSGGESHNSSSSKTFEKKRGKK
Description: Active TTK was purchased from Invitrogen as an amino terminal GST fusion of full length human TTK.
TTK activity was measured using an indirect ELISA detection system. GST-TTK (0.68 nM) was incubated in the presence of 16 μM ATP (Sigma cat#A7699), 50 mM Hepes pH 7.2, 1 mM EGTA, 10 mM MgCl2, and 0.1% Pluronic in a 96 well microtitre plate pre-coated with amino terminal 6 histidine, sumo tagged TTK (amino acid residues 1-275). The reaction was allowed to proceed for 30 minutes, followed by 5 washes of the plate with Wash Buffer (phosphate buffered saline supplemented with 0.2% Tween 20), and incubation for 30 minutes with a 1:3000 dilution of primary antibody (Cell Signaling cat#9381). The plate was washed 5 times with Wash Buffer, incubated for 30 minutes in the presence of secondary antibody coupled to horse radish peroxidase (BioRad cat#1721019, 1:3000 concentration), washed an additional 5 times with Wash Buffer, and incubated in the presence of TMB substrate (Sigma cat#T0440). The colourimetric reaction was allowed to continue for 5 minutes, followed by addition of stop solution (0.5 N sulphuric acid), and quantified by detection at 450 nm with either a monochromatic or filter based plate reader (Molecular Devices M5 or Beckman DTX880, respectively).
Compounds were pre-incubated in the presence of enzyme for 5 minutes prior to addition of ATP and the activity remaining quantified using the above described activity assay. The % Inhibition of a compound was determined using the following formula; % Inhibition=100×(1−(experimental value−background value)/(high activity control−background value)). The IC50 value was determined using a non-linear 4 point logistic curve fit (XLfit4, IDBS) with the formula; (A+(B/(1+((x/C)̂D)))), where A=background value, B=range, C=inflection point, D=curve fit parameter.

human PLK4 = biological target: T2, human PLK4 (Homo sapiens, UniProt O00444); experiment: PLK4 inhibition assay (indirect ELISA); assay type: biochemical; settings: GST-PLK4 4 nM, 15 μM ATP; read-out: IC50 Ranges PLK4
T2 construct: amino terminal GST fusion of residues 1-391 of human PLK4; made in house; host or cells: E. coli
T2 sequence (O00444 1-391): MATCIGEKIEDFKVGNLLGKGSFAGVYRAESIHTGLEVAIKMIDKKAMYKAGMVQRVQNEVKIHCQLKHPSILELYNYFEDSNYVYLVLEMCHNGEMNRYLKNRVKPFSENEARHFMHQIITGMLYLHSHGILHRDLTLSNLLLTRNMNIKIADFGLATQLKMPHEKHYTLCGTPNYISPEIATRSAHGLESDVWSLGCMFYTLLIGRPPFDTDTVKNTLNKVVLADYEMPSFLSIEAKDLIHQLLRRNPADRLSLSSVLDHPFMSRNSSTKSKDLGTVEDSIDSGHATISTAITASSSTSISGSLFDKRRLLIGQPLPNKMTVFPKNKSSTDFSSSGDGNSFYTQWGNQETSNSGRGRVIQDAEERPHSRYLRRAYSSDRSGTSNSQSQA
How it was run: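 Dephosphorylated GST-tagged human PLK4 (residues 1-391, E. coli), 4 nM, preincubated 15 min with compound, then reacted 30 min with 15 μM ATP on MBP-coated plates (50 mM HEPES pH 7.5, 10 mM MgCl2, 0.01% Brij 35). Phospho-MBP detected by antibody ELISA at 450 nm. Tested at 10 μM or 10-point titrations; IC50 from 4-parameter logistic fit.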

Aurora B = biological target: T3, Aurora B (Homo sapiens, UniProt Q96GD4); experiment: Aurora B inhibition assay (Z-Lyte); assay type: biochemical; settings: 28 nM Aurora B, 128 μM ATP; read-out: IC50 Ranges Aurora B
T3 construct: purchased Invitrogen PV3970
T3 sequence (Q96GD4 whole entry): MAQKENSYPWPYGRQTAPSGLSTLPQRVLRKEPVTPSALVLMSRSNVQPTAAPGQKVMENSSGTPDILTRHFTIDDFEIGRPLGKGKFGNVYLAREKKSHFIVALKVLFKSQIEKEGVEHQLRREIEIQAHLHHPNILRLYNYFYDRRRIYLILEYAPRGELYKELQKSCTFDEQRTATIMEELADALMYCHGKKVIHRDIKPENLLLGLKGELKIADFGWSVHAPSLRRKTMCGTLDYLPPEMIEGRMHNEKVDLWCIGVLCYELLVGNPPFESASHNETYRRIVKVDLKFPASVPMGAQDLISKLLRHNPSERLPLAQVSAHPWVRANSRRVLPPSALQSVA
Description: Aurora B inhibition was determined using the Z-Lyte assay kit from Invitrogen. The assay was performed using the recommended manufacturer's instructions with 128 μM ATP and 28 nM Aurora B (Invitrogen cat #PV3970). The % inhibition values were determined according to the manufacturer's directions and IC50 values were obtained using a non-linear 4 point logistic curve fit (XLfit4, IDBS)

[1] = tested on: MDA-MB-231 breast cancer cells; experiment: Cell growth inhibition, Sulforhodamine B assay, MDA-MB-231; assay type: cell-based; settings: Homo sapiens, 120 h, 5 days culture, SRB assay, read-out: Cell Line GI50 Range MDA-MB-231
Description: (§1) Breast cancer cells (MDA-MB-231, MDA-MB-468), colon cancer cells (HCT116, HT29) and ovarian cancer cells (PA-1, OVCAR-3) were seeded (1000 to 4000 in 80 μl per well depending on the cell growth rate) into 96 well plates 24 hours before compound overlay. Compounds were prepared as 10 mM stock solutions in 100% DMSO which were diluted with DMEM (Dulbecco's Modified Eagle's Medium) cell growth Medium (Invitrogen, Burlington, ON, Canada) containing 10% FBS (Fetal Bovine Serum) to concentrations ranging from 50 nM to 250 μM. Aliquots (20 μl) from each concentration were overlaid to 80 μl of the pre-seeded cells in the 96 well plates to make final concentrations of 10 nM to 50 μM. The cells were cultured for 5 days before the Sulforhodamine B assay (SRB) was performed to determine the compound's cell growth inhibition activity.
(§2) Sulforhodamine B (purchased from Sigma, Oakville, ON, Canada) is a water-soluble dye that binds to the basic amino acids of the cellular proteins. Thus, colorimetric measurement of the bound dye provides an estimate of the total protein mass that is related to the cell number. the cells are fixed in situ by gently aspirating off the culture media and adding 50 μl ice cold 10% Trichloroacetic Acid (TCA) per well and incubate at 4° C. for 30-60 min, The plates are washed with water five times and allowed to air dry for 5 min. Addition of 50 μl 0.4% (w/v) SRB solution in 1% (v/v) acetic acid to each well and incubatation for 30 min at RT completes the staining reaction. Following staining, plates are washed four times with 1% acetic acid to remove unbound dye and then allowed to air dry for 5 min. The stain is solubilized with 100 μl of 10 mM Tris pH 10.5 per well. Absorbance is read at 570 nm.
(§3) The percentage (%) of relative growth inhibition was calculated by comparing to DMSO treated only cells (100%). […] The GI50 was calculated using GraphPad PRISM software (GraphPad Software, Inc., San Diego, Calif., USA).

[2] = tested on: MDA-MB-468 breast cancer cells; experiment: Cell growth inhibition, Sulforhodamine B assay, MDA-MB-468; assay type: cell-based; settings: Homo sapiens, 120 h, 5 days culture, SRB assay, read-out: Cell Line GI50 Range MDA-MB-468
[3] = tested on: HCT116 colon cancer cells; experiment: Cell growth inhibition, Sulforhodamine B assay, HCT116; assay type: cell-based; settings: Homo sapiens, HCT-116, 120 h, 5 days culture, SRB assay, read-out: Cell Line GI50 Range HCT116
Description: as §1, §2, §3

HT29 colon cancer cells = experiment: Cell growth inhibition, Sulforhodamine B assay, HT29; assay type: cell-based; settings: Homo sapiens, HT-29, 120 h, 5 days culture, SRB assay, read-out: Cell Line GI50 Range HT29
[4] = tested on: PA-1 ovarian cancer cells; experiment: Cell growth inhibition, Sulforhodamine B assay, PA-1; assay type: cell-based; settings: 120 h, 5 days culture, SRB assay, read-out: Cell Line GI50 Range PA-1
[5] = tested on: OVCAR-3 ovarian cancer cells; experiment: Cell growth inhibition, Sulforhodamine B assay, OVCAR-3; assay type: cell-based; settings: Homo sapiens, 120 h, 5 days culture, SRB assay, read-out: Cell Line GI50 Range OVCAR-3
[6] = tested on: Colon tumor initiating cells (TICs), 12 colon; experiment: Colon tumor-initiating cell growth inhibition (Alamar Blue); assay type: cell-based; settings: 216 h, 9 days, read-out: GI50 range 12 colon
Description: (§4) Materials and Methods: Non-tissue or tissure cultured treated T-75 flask and 96-well plates were purchased from VWR. Vitamin B-27 supplement, MEM NEAA (minimum essential medium non essential amino acids), sodium pyruvate, L-glutamine, N2 supplement, penicillin-streptomycin and fungizone/amphotericin B were obtained from Invitrogen. Lipid mixture, heparin and EGF were purchased from Sigma; bFGF from BD Biosciences. Colon tumor initiating cells (TICs) were routinely maintained using non-tissue cultured treated T-75 flasks in DMEM:F12 medium containing 0.2XB-27 supplement, 4 ug/ml heparin, 1XMEM NEAA, 1× sodium pyruvate, 1 mM glutamine, 10 pg/ul bFGF, 20 pg/ul EGF, 1×N2 supplement, lipid mixture, penicillin-streptomycin and fungizone/amphotericin B. Ovarian TICs were routinely maintained using tissue cultured treated T-75 flasks in DMEM:F12 medium containing 1XB-27 supplement, 4 ug/ml heparin, 20 pg/ul bFGF, 20 pg/ul EGF and penicillin-streptomycin.
(§5) Compounds described herein were dissolved in DMSO and further diluted in cell culture medium for GI50 determination. Colon TICs were trypsinized and seeded into non-tissue cultured treated 96-well plates with 4,000 cells/well. After 24 h, compound was added into the cell culture at different concentrations, and the final concentration of DMSO was adjusted to 0.1%. Cells were then cultured at 37° C. for 9 days. Ovarian TICs were trypsinized and seeded into tissue cultured treated 96-well plates with 1,000 cells/well. After 24 h, compound was added into the cell culture at different concentrations, and the final concentration of DMSO was adjusted to 0.1%. Cells were then cultured at 37° C. for 6 days. Cell viability was assessed by Alamar Blue assay: 10 ul of Alamar Blue was added into each well. After 4 hours incubation at 37° C., fluorescence was recorded at excitation 544 and emission 590. GI50 (Growth inhibition) was calculated using GraphPad Prism 4.0 software.

[7] = tested on: Ovarian TICs, 2393A ovarian; experiment: Ovarian tumor-initiating cell growth inhibition (Alamar Blue); assay type: cell-based; settings: 144 h, 6 days, read-out: GI50 range 2393A ovarian
Description: as §4, §5

Structure (SMILES) | IC50 (human TTK) | IC50 (human PLK4) | IC50 (Aurora B) | GI50 [1] | GI50 [2] | GI50 [3] | GI50 (HT29 colon cancer cells) | GI50 [4] | GI50 [5] | GI50 [6] | GI50 [7]
CN1CCC(Oc2ccc(-c3n[nH]c4ccc(NC(=O)C(c5cccs5)N5CCCC5)cc34)cc2)CC1 (stereo not drawn) [Example A91, N-(3-(4-((1-methylpiperidin-4-yl)oxy)phenyl)-1H-indazol-5-yl)-2-(pyrrolidin-1-yl)-2-(thiophen-2-yl)acetamide] | ≤ 5 µM | ≤ 5 µM | ≤ 5 µM | ≤ 5 µM | ≤ 5 µM | ≤ 5 µM | ≤ 5 µM | ≤ 5 µM | ≤ 5 µM | ≤ 5 µM | ≤ 5 µM
COCCN1CCC(Oc2ccc(-c3n[nH]c4ccc(C(=O)NC(c5ccccc5)C5CC5)cc34)cc2)CC1 (stereo not drawn) [Example A98, N-(cyclopropyl(phenyl)methyl)-3-(4-((1-(2-methoxyethyl)piperidin-4-yl)oxy)phenyl)-1H-indazole-5-carboxamide] | ≤ 5 µM | ≤ 5 µM | ≤ 5 µM | ≤ 5 µM | ≤ 5 µM | ≤ 5 µM | ≤ 5 µM | ≤ 5 µM | ≤ 5 µM | ≤ 5 µM | ≤ 5 µM
CN1CCC(Oc2ccc(-c3n[nH]c4ccc(C(=O)NC(c5ccsc5)C5CCCC5)cc34)cc2)CC1 (stereo not drawn) [Example A110, N-(cyclopentyl(thiophen-3-yl)methyl)-3-(4-((1-methylpiperidin-4-yl)oxy)phenyl)-1H-indazol-5-carboxamide] | ≤ 5 µM | ≤ 5 µM | ≤ 5 µM | ≤ 5 µM | ≤ 5 µM | ≤ 5 µM | ≤ 5 µM | ≤ 5 µM | ≤ 5 µM | ≤ 5 µM | ≤ 5 µM
CC[C@@H](NC(=O)c1ccc2[nH]nc(-c3ccc(OC4CCN(CCOC)CC4)cc3)c2c1)c1ccccc1Cl [Example A128, (R)—N-(1-(2-chlorophenyl)propyl)-3-(4-((1-(2-methoxyethyl)piperidin-4-yl)oxy)phenyl)-1H-indazole-5-carboxamide] | ≤ 5 µM | ≤ 5 µM | ≤ 5 µM | ≤ 5 µM | ≤ 5 µM | ≤ 5 µM | ≤ 5 µM | ≤ 5 µM | ≤ 5 µM | ≤ 5 µM | ≤ 5 µM
CN1CCC(Oc2ccc(-c3n[nH]c4ccc(C(=O)NC(c5ccccc5)C5CCCCC5)cc34)cc2)CC1 (stereo not drawn) [Example A170, N-(cyclohexyl(phenyl)methyl)-3-(4-((1-methylpiperidin-4-yl)oxy)phenyl)-1H-indazole-5-carboxamide] | ≤ 5 µM | ≤ 5 µM |  | ≤ 5 µM | ≤ 5 µM | ≤ 5 µM | ≤ 5 µM | ≤ 5 µM | ≤ 5 µM | ≤ 5 µM | ≤ 5 µM
COC[C@@H](NC(=O)c1ccc2[nH]nc(-c3ccc(OC4CCN(C)CC4)cc3)c2c1)c1ccccc1 [Example A173, (S)—N-(2-methoxy-1-phenylethyl)-3-(4-((1-methylpiperidin-4-yl)oxy)phenyl)-1H-indazole-5-carboxamide] | ≤ 5 µM | ≤ 5 µM |  | ≤ 5 µM | ≤ 5 µM | ≤ 5 µM | ≤ 5 µM | ≤ 5 µM | 5 to 20 µM | ≤ 5 µM | ≤ 5 µM
CC(C)OC(C(=O)Nc1ccc2[nH]nc(-c3ccc(OC4CCN(C)CC4)cc3)c2c1)c1ccccc1 (stereo not drawn) [Example A187, 2-isopropoxy-N-(3-(4-((1-methylpiperidin-4-yl)oxy)phenyl)-1H-indazol-5-yl)-2-phenylacetamide] | ≤ 5 µM | ≤ 5 µM | ≤ 5 µM | ≤ 5 µM | ≤ 5 µM | ≤ 5 µM |  | ≤ 5 µM | ≤ 5 µM | ≤ 5 µM | ≤ 5 µM
CN1CCC(Oc2ccc(-c3n[nH]c4ccc(C(=O)NC(c5ccccc5)C5CC5)cc34)cc2Cl)CC1 (stereo not drawn) [Example A188, 3-(3-chloro-4-((1-methylpiperidin-4-yl)oxy)phenyl)-N-(cyclopropyl(phenyl)methyl)-1H-indazole-5-carboxamide] | ≤ 5 µM | ≤ 5 µM | ≤ 5 µM | ≤ 5 µM | ≤ 5 µM | ≤ 5 µM |  | ≤ 5 µM | ≤ 5 µM | ≤ 5 µM | ≤ 5 µM
O=C(Nc1ccc2[nH]nc(-c3ccc(OC4CN(C5COC5)C4)cc3)c2c1)C(c1ccsc1)N1CCCC1 (stereo not drawn) [Example A189, N-(3-(4-((1-(oxetan-3-yl)azetidin-3-yl)oxy)phenyl)-1H-indazol-5-yl)-2-(pyrrolidin-1-yl)-2-(thiophen-3-yl)acetamide] | ≤ 5 µM | ≤ 5 µM | ≤ 5 µM | 5 to 20 µM | ≤ 5 µM | ≤ 5 µM |  | ≤ 5 µM | 20 to 50 µM | ≤ 5 µM | ≤ 5 µM
CN1CCC(Oc2ccc(-c3n[nH]c4ccc(NC(=O)C(c5ccsc5)N5CCC5)cc34)cc2)CC1 (stereo not drawn) [Example A191, 2-(azetidin-1-yl)-N-(3-(4-((1-methylpiperidin-4-yl)oxy)phenyl)-1H-indazol-5-yl)-2-(thiophen-3-yl)acetamide] | ≤ 5 µM | ≤ 5 µM | ≤ 5 µM | ≤ 5 µM | ≤ 5 µM | ≤ 5 µM |  | ≤ 5 µM | ≤ 5 µM | ≤ 5 µM | ≤ 5 µM
CC[C@H](NC(=O)c1ccc2[nH]nc(-c3ccc(OC4CCN(C5COC5)CC4)cc3)c2c1)c1ccccc1Cl [Example A193, (S)—N-(1-(2-chlorophenyl)propyl)-3-(4-((1-(oxetan-3-yl)piperidin-4-yl)oxy)phenyl)-1H-indazole-5-carboxamide] | ≤ 5 µM | ≤ 5 µM | ≤ 5 µM | ≤ 5 µM | ≤ 5 µM | ≤ 5 µM |  | ≤ 5 µM | ≤ 5 µM | ≤ 5 µM | ≤ 5 µM
